The source of these data is patent US7763439B2, “Two-photon absorbing dipyrrometheneboron difluoride dyes and their applications” (Arctic Diagnostics Oy, priority 2001, dated 2010).

Series [1] is described as follows: Two-photon fluorescence yields of dyes in solution, laser with high two-photon excitation efficiency. It is filed as physicochemical. The note with it: 100 nM dye in ethanol (R-PE in PBS pH 7.4); 1064 nm Nd:YAG microchip laser; normalised to Rhodamine B (100). The source says: (§1) FIG. 1 is a plot of two-photon excitations vs. illumination intensity. At low illumination intensities (A) excitation follows a quadratic dependence of the illumination intensity. In order to maximise the two-photon excited fluorescence a dye should be excited close to saturation level (B). At saturation level (C) almost all of the dye molecules become excited. FIG. 2a present alkyl substituted dipyrrometheneboron difluoride dyes described in examples 1-3 as compounds 1-3. FIGS. 2b and 2c present heteroaryl substituted dipyrrometheneboron difluoride dyes described in examples 4-9 as compounds 4-9. X^+ is a cationic counterion. FIG. 2d presents phenyl substituted dipyrrometheneboron difluoride dyes described in examples 10 and 11 as compounds 10 and 11. X^+ is a cationic counterion. FIGS. 2e and 2f present phenylethenyl substituted dipyrromethene-boron difluoride dyes described in examples 12 and 13 as compounds 12 and 13. X^+ is a cationic counterion. FIGS. 2g and 2h present thienyl substituted dipyrrometheneboron difluoride dyes with amino-, arylamino-, maleimide- and isothiocyanate reactive groups described in examples 14-17 as compounds 14-17. X^+ is a cationic counterion. FIG. 3 presents a linker compound 18 that is used to increase solubility of the dyes in aqueous solutions. X^+ is a cationic counter-ion. FIG. 4 is a plot of two-photon fluorescence signal vs. analyte (AFP) concentration in an immunoassay based on two-photon fluorescence as described in example 21. The AFP concentration 0 ng/ml is presented as a concentration of 0.1 ng/ml because of the logarithmic scale used in FIG. 4. FIG. 5 is an optical scheme of the instrument used in two-photon fluorescence measurements. A passively Q-switched Nd:YAG microchip laser 1 is used as an illumination source for two-photon excited fluorescence. The wavelength of the laser is 1064 nm, the pulse duration is 1 ns and the repetition rate is 20 kHz. The naturally diverging laser light beam is directed with a dichroich mirror 2 through an optical scanner unit 3 to the entrance aperture of the objective lens 4. The illumination at the entrance aperture is gaussian filling about 70% of the full aperture. The objective lens then focuses the illumination light into a special cuvette 5 that has a thin optical bottom (thickness 0.2 mm). The average optical output power reaching the sample is 50 mW. The size of the focal volume is about 1 femtoliter. The two-photon excited fluorescence signal in the range 540-700 nm is collected from the full aperture of the objective lens 4 and directed through the dichroich mirror 2 and the band pass filter 6 to the photomultiplier tube 7. In case of particle measurements, both the two-photon excited fluorescence light and the microparticle back-scattered (reflected) laser light are measured. The dichroich mirror 2 and the 2% beam splitting window 8 deflect the back-scattered light to the pinhole 9 making the detection of the scattering signal confocal. The detector for the scattering signal is a near infrared GaAs pin photodiode 10. The particles are continuously tracked by using a three-dimensional beam scanner 3. The xy-scanner is optomechanical and is positioned as close to the entrance aperture of the objective lens as possible. […] Optical pressure caused by the illuminating laser beam traps the particle and guides it through the centre of laser beam focus. The fluorescence signal is measured while the particle is in focus i.e. the back scattering signal exceeds the preset threshold. In addition to xy-scanning a further z-scanning movement is performed by moving the objective slowly in the axial direction. The amplitude of this movement is 150 μm and the movement is not stopped for particle measurement. Despite of slow z-scanning the particle remains in the focus on basis of optical trapping forces.
The two-photon fluorescence yields were measured using experimental apparatus shown schematically in FIG. 5. […]

A short description of series [2]: Single pulse effect: z-response, 20% to 80% fluorescence intensity distance in dye solution. As to conditions: dye solution between two microscope slides; two-photon excitation. The class given is physicochemical.
From the text: as §1
The direct measurement of quenching by single pulse effect is difficult. […]

With R-phycoerythrin [R-PE], the “Normalised two-photon fluorescence yield” value in series [1] was found to be 618 a.u. Moreover, the “20% to 80% fluorescence intensity distance values” in series [2] is recorded as 21.5 a.u.
With “Glu-Tau-succinimide derivative of 4,4-difluoro-5-(2-thienyl)-1,3-dimethyl-4-bora-3a,4a-diaza-s-indacene-2-propionic acid [Compound 8]”, in series [1], the “Normalised two-photon fluorescence yield” value was determined as 219 a.u. Besides, the “20% to 80% fluorescence intensity distance values” in series [2] came to 12.6 a.u.
As to “4,4-difluoro-1,3,5,7-tetramethyl-6-carboxyethyl-4-bora-3a,4a-diaza-s-indacene-2-propionic acid succinimidylester [Compound 3]”, the “Normalised two-photon fluorescence yield” value in series [1] is reported as 18 a.u. The “20% to 80% fluorescence intensity distance values” in series [2] is reported as 11.5 a.u.
Turning to `CCN(CC)c1ccc2c(-c3ccccc3C(=O)O)c3ccc(=[N+](CC)CC)cc-3oc2c1.[Cl-]` [Rhodamine B], the “Normalised two-photon fluorescence yield” value in series [1] was 100 a.u. The “20% to 80% fluorescence intensity distance values” in series [2] is listed as 16.5 a.u.
On to `O=C(O)CCC1=[N+]2C(=Cc3c(-c4ccccc4)cc(-c4ccccc4)n3[B-]2(F)F)C=C1` [BODIPY 530/550], for which, in series [1], the “Normalised two-photon fluorescence yield” value is 66 a.u. Moreover, the “20% to 80% fluorescence intensity distance values” in series [2] turned out to be 12.2 a.u.
The like results for `O=C(O)CCC1=[N+]2C(=Cc3ccc(-c4cccs4)n3[B-]2(F)F)C=C1` [BODIPY 558/568] were, in that order, 101 a.u and 13.7 a.u.
